pIC50: −log10 of the molar value.

We go through 4 compounds from patent publication US7226748B2, “HSC70 directed diagnostics and therapeutics for multidrug resistant neoplastic disease” (priority 2003, dated 2007).

One data set deals with lysosomal hydrolases. As to conditions: cited from earlier work.
Data set [1] has as its system antigen-positive E3 cell line. As to conditions: read-out: IC50 (cytotoxicities); cited from earlier work.
For the next data set, the system named is E3 target cells. Particulars: read-out: IC50 (selective cytotoxicity); cited from earlier work.
The test system of data set [2] is hematological tumor cells. The experiment in a line: HSC70 vaccine protection against hematological tumor cells in mice. Format: in vivo. As to conditions: mice vaccinated prior to injection of tumor cells versus not vaccinated.

For the compound Ala-Leu-Dau [Ala-Leu-Dau derivative], in the data set with lysosomal hydrolases, the “time for conversion back to the free drug by lysosomal hydrolases” value is 2 h.

In the case of `O=c1[nH]c(=O)n([C@H]2C[C@H](O)[C@@H](CO)O2)cc1F` [FUDR, 5-fluoro-2′-deoxyuridine], the pIC50 in data set [1] is 9.40.

On to `CC(=O)[C@]1(O)Cc2c(O)c3c(c(O)c2[C@@H](O[C@H]2C[C@H](N)[C@H](O)[C@H](C)O2)C1)C(=O)c1ccccc1C3=O` [Ida, Idarubicin], for which, in the data set with E3 target cells, the negative-log IC50 (pIC50) is 6.92.

Regarding “HSC70: purified full length murine HSC70 protein used as vaccine antigen, may be administered with an adjuvant”, in data set [2], the tumor size entry was “smaller”.

As a reminder, the pIC50 is the negative decadic logarithm of the IC50, by convention in mol/L.
